The results in this text go back to patent publication US20250115578A1, “AROMATIC FUSED RING NAV1.8 INHIBITOR, AND USE THEREOF” (CHENGDU KANGHONG PHARMACEUTICAL CO., LTD., priority 2022, published 2025).

What is called solubility (kinetic) is the concentration staying in solution when a stock, usually in DMSO, is diluted into the medium. As a reminder, the inhibition is the change of the read-out against control, counted positive when it falls. A word on the IC50: it is the concentration that inhibits the measured activity by half.

Series [1] can be described thus: Assay of kinetic solubility. In kind it is physicochemical. The settings on record: aqueous buffer, kinetic from dmso stock, pH 3.5 phosphate buffer, 25° C. As to the method:
The stock solutions of the test compound and the standard progesterone were prepared in DMSO at the concentration of 10 mM.
30 μL of stock solutions at 10 mM of the test compounds and standard substance were placed in order into their proper 96-well plate. 970 μL phosphate buffer at the specified pH was added to the proper vial of the sample plate. The assay was performed in duplicate. A stirring stick was added to each vial and the teflon/silicone plug was capped. The sample tray was then placed in the Eppendorf Thermomixer Comfort and shaken at 1100 RPM at 25° C. for 2 hours. After 2 hours, plugs were removed, a big magnet was used to remove the stirring sticks, and samples were transferred from the sample plate to the filter plate. Vacuum pump was used to create negative pressure and filtered the samples. Transferred 5 μL of the filtrate to the new sample plate, then added 5 μL DMSO and 490 μL water/acetonitrile (V/V=1/1) to dilute the solvent. The dilution factor may be adjusted according to the solubility values of the substances to be tested or the strength of its LC-MS signal response.
From the 10 mM DMSO stock solution, 15 μL of that was transferred into the empty plate and 485 μL DMSO was added to prepare a 300 μM standard solution. From the 300 μM standard solution plate, 5 μL of that was transferred to another empty plate and 5 μL phosphate buffer at specified pH and 490 μL water/acetonitrile (V/V=1/1) dilution solvent were added to the standard solution to get a final concentration of 3 μM. The concentration of the standard solution may be adjusted according to the strength of its LC-MS signal response.
The sample plate was placed into the sample tray of the automatic sampler and the samples were evaluated by LC-MS/MS analysis.
All calculations were carried out by Microsoft Excel.
The sample filtrate was analyzed and quantified against a standard of known concentrations using LC-MS spectral peaks to identify and quantify. The solubility values of the control drug and the compounds to be tested were calculated as the following formula: • [Sample]: concentration of the sample • AREASample: peak area of the sample • INJ VOLStd: standard sample injection volume • DFSample: sample dilution factor • [STD]: standard substance concentration • AREAStd: peak area of standard substance • INJ VOLSample: sample injection volume

The nature of series [2]: Stability assay for human liver microsomes in vitro. In kind it is in vitro ADME. The settings on record: 1 μM compound, 0.5 mg/mL liver microsomes, read-out: Human liver microsome stability T1/2. As to the method: • Human liver microsomes, purchased from Corning or Xenotech, stored in a −80° C. refrigerator. • Nicotinamide adenine dinucleotide phosphate (NADPH), Chem-impex international, 00616 • Control compounds: testosterone, diclofenac, propafenone
• Water bath (HH-60, Guohua, Changzhou, China) • Pipette workstation (PP-550DS, Apricot, Covina, USA) • Centrifuge (5810R, Eppendorf, Hamburg, Germany) • Mass Spectrometer (Sciex API 4000, Singapore) • High Performance Liquid Chromatography (LC 20-AD, Shimadzu, Kyoto, Japan) • Sampler (ADDA, Apricot Designs, California, USA)
• Stock solution: 10 mM in DMSO • Working solution concentration preparation: 10 mM stock solution was diluted to 100 μM with 100% acetonitrile (organic phase content: 99% ACN, 1% DMSO)
Two 96-well incubation plates were named T60 incubation plate and NCF60 incubation plate.
445 μL microsomal working solution (liver microsomal protein concentration: 0.56 mg/mL) was added to the T60 and NCF60 incubation plates respectively, then the incubation plates above were placed in a water bath at 37° C. for pre-incubation approximately 10 minutes.
After the pre-incubation finished, 5 μL of the test compound working solution was added to the T60 and NCF60 incubation plates respectively, and mixed well. 50 μL potassium phosphate buffer was added to each well on the NCF60 incubation plate to start the reaction. 180 μL termination solution (acetonitrile solution containing 200 ng/mL tolbutamide and 200 ng/mL labetalol) and 6 uL working solution of NADPH regeneration system were added to the TO termination plate, and 54 μL samples were removed from the T60 incubation plate to the TO termination plate (TO sample generated). The reaction was initiated by adding 44 μL of NADPH regenerating system working solution per well on the T60 incubation plate. Only 54 μL microsomal working solution, 6 uL NADPH regeneration system working solution, and 180 μL termination solution were added to the Blank plate. Therefore, in the samples of the test or control compounds, the final reaction concentration of the compounds, testosterone, diclofenac and propafenone was 1 μM, the concentration of the liver microsomes was 0.5 mg/mL, and the final concentration of DMSO and acetonitrile in the reaction system was 0.01% (v/v) and 0.99% (v/v), respectively.
After incubation for an appropriate time (e.g. 5, 10, 20, 30, and 60 minutes), 180 μL of termination solution (acetonitrile solution containing 200 ng/mL tolbutamide and 200 ng/mL labetalol) was added to the sample hole of each termination plate, respectively. After that, 60 μL sample was removed from the T60 incubation plate to terminate the reaction.
All sample plates were shaken evenly and centrifuged at 3220×g for 20 min. Then 80 μL supernatant was taken from each well and diluted to 240 μL pure water for LC-MS/MS analysis.
All samples were injected for analysis.
In general terms: Liver microsomes are vesicles of endoplasmic reticulum, rich in cytochrome P450 enzymes.

Another series has as its target hNav1.8 (Homo sapiens (Human), UniProt Q9Y5Y9). The series can be described thus: Manual patch clamp, Method 1 (CHO cell line stably expressing hNav1.8). In kind it is cell-based. Conditions: for inhibition at 0.01 µM / inhibition at 0.1 µM: read-out: Inhibition rate of hNav1.8; for IC50: Method 1, CHO-hNav1.8, manual patch clamp, resting state, read-out: IC50 inhibitory activity against hNav1.8; for inhibition at 0.1 µM: 100 nM. The source says: The patch clamp technique is known as the “gold standard” for studying ion channels, and it uses glass microelectrodes to seal the cell membrane to measure the currents of various membrane channel. […] Patch clamp technology can evaluate the inhibition strength of different compounds on different states of Navs by measuring the changes of membrane channel currents after different compounds bind to different states of Navs.
The representative compounds of the present invention used stable CHO or HEK293 cell lines transfected with specific ion channels to measure the effect of the compounds on Nav1.8 currents by manual patch clamp test, to evaluate their inhibition strength.
The assay protocol of manual patch clamp is as follows:
CHO cell lines with stable expression of hNav1.8 were cultured in F12 medium containing 10% fetal bovine serum at a constant temperature of 37° C., and the carbon dioxide concentration was maintained at 5%. The old culture medium was removed and washed once with PBS, then 1 mL 0.25%-Trypsin-EDTA solution was added and incubated at 37° C. for 1 min. When the cells were detached from the bottom of the dish, 5 mL of the complete medium preheated at 37° C. was added, and the aggregated cells were separated by gently blowing with a straw. The cell suspension was transferred into a sterile centrifuge tube and centrifuged at 1000 rpm for 5 min to collect cells. The cells were then inoculated into a cell culture dish with a diameter of 6 cm (2.5×10^5 cells/petri dish, 5 mL medium) for expansion or maintenance.
In order to maintain the electrophysiological activity of the cells, the cell density must be less than 80%.
The cells were separated with 0.25%-Trypsin-EDTA before the assay, and 5×10^3 cells were seeded on a cover slip and cultured in a 24-well plate (final volume: 500 μL) for 18 h. Then the assay was conducted.
The compounds prepared in the examples of the present invention were dissolved in dimethyl sulfoxide (DMSO) and prepared into DMSO stock solution with a concentration of 10 mM for assay. And it was diluted to various concentrations with extracellular solution (140 mM NaCl, 3.5 mM KCl, 1 mM MgCl2, 2 mM CaCl2), 10 mM Glucose, 10 mM HEPES, 1.25 mM NaH2PO4, pH=7.4 regulated by NaOH), and the final concentration of DMSO in each compound sample was 0.10% or less.
A capillary glass pipette (BF150-86-10, Sutter Instruments) was pulled into a recording electrode with a micropipette puller (P97, Sutter Instruments). The micromanipulator (MP285, Sutter Instruments) was manipulated under an inverted microscope (IX71, Olympus) to make the recording electrode contact the cell and negative pressure suction was applied to achieve a GQ seal. Then, rapid capacitance compensation was performed, and negative pressure was continued, cell membrane was broken by suction, and whole cell recording mode was formed. Then the slow capacitance was compensated and the membrane capacitance and series resistance were recorded without leakage compensation. When the whole cell recording current was stabilized, dosing was initiated, and the next concentration was detected after acting 5 minutes of each drug concentration. Multiple cells were independently repeated during the recording period. All electrophysiological assays were performed at room temperature. Specifically, 6 concentrations (measuring IC50) or 2 concentrations (preliminary screening) were set for each compound, and the percentage of inhibition of sodium channels was determined by calculating the relative percentage of peak current generated before and after each concentration compound treated cells, and the IC50 value or percentage of inhibition at a specific concentration was calculated using IGOR pro software.
A general note: The patch-clamp technique gives a direct electrical read-out from membranes.

In another series the target is Human Nav1.8 ion channel (Homo sapiens (Human), UniProt Q9Y5Y9). Kind of series: Manual patch clamp, Method 2 (HEK293 cells stably expressing human Nav1.8, resting state). In kind it is cell-based. The settings on record: Method 2, HEK293-hNav1.8, resting state, 1 μM TTX; read-out: IC50 inhibitory activity against hNav1.8.

In brackets after ≈: the same amount, converted by molar mass. Where two headings read alike, the source gives them in different places. Bounds are passed on as bounds.

Sequence of hNav1.8 (Q9Y5Y9 whole entry): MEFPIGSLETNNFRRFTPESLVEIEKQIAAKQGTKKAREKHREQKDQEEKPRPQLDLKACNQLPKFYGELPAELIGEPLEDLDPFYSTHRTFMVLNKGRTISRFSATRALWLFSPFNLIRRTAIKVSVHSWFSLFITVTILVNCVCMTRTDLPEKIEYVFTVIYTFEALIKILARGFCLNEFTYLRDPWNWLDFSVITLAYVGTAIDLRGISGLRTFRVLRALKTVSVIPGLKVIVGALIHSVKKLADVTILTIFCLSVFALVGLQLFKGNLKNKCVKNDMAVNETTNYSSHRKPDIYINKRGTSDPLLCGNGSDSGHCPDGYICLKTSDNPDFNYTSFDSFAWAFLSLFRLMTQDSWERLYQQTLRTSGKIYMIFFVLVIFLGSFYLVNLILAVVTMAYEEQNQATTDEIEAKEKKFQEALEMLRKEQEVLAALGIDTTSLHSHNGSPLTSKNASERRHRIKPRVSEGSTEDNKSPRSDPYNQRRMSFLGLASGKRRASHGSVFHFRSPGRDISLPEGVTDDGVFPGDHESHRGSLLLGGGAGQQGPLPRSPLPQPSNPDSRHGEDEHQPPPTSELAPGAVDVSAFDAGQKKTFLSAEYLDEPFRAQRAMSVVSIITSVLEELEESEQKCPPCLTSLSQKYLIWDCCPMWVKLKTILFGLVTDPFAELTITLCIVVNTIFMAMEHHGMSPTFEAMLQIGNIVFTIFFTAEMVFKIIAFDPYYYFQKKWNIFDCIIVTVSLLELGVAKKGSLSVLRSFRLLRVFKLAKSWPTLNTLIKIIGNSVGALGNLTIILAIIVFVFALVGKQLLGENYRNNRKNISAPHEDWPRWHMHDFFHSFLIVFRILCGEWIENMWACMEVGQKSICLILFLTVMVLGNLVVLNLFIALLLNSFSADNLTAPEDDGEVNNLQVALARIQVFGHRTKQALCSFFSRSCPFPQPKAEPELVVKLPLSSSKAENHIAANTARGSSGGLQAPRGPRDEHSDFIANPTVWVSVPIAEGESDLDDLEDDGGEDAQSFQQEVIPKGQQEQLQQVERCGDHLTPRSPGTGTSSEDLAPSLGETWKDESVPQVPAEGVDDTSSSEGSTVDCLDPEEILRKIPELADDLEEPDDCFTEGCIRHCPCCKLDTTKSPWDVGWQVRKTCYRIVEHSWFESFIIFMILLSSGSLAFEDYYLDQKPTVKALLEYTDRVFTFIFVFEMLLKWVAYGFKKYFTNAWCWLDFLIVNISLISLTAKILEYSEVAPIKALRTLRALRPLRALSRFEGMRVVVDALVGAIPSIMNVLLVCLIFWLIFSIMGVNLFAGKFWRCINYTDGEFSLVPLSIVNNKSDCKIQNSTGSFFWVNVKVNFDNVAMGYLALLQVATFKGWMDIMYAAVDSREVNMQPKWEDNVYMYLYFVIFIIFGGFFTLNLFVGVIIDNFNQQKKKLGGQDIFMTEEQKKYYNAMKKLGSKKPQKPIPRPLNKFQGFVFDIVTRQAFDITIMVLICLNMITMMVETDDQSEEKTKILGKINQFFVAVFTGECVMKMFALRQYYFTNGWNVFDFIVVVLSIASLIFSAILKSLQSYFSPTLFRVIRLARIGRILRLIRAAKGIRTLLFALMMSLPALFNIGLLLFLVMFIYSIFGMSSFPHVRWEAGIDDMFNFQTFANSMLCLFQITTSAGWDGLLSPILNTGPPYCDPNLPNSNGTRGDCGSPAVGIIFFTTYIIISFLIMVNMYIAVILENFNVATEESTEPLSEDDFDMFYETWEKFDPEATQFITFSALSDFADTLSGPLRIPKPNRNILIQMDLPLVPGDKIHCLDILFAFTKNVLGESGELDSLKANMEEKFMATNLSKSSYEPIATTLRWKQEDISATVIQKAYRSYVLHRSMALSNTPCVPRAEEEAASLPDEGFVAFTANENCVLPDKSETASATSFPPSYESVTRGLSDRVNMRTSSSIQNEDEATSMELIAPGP

Turning to `NS(=O)(=O)c1cc(NC(=O)c2nc3ccccc3nc2N2CCCC(F)(F)CC2)ccn1` [Example 06, 3-(4,4-difluoroazepan-1-yl)-N-(2-sulfamoylpyridin-4-yl)quinoxaline-2-carboxamide], the solubility (kinetic) at 2 h in series [1] came to 0.39 µM (≈ 0.18 µg/mL). Moreover, the half-life at 1 µM in series [2] is greater than 2.42 h. In addition, the inhibition at 0.01 µM on hNav1.8 (CHO) was 77.6%. Besides, the IC50 on hNav1.8 came out at 3.1 nM.
`NC(=O)c1cccc(NC(=O)c2nc3ccccc3nc2N2CCCC(F)(F)CC2)c1` [Example 07, N-(3-carbamoylphenyl)-3-(4,4-difluoroazepan-1-yl)quinoxaline-2-carboxamide] registered a kinetic solubility at 2 h in series [1] of 52.7 µM (≈ 22.4 µg/mL). In addition, the half-life at 1 µM in series [2] came to 1.06 h. Moreover, the inhibition at 0.01 µM at hNav1.8 (10 nM, Method 1, CHO-hNav1.8) was determined as 48.3%. In addition, the IC50 at hNav1.8 was 14.7 nM.
Molecule `NC(=O)c1cc(NC(=O)c2cc3ccccc3nc2N2CCCC(F)(F)CC2)ccc1F` [Example 09, N-(3-carbamoyl-4-fluorophenyl)-2-(4,4-difluoroazepan-1-yl)quinoline-3-carboxamide] returned a solubility (kinetic) at 2 h in series [1] of 157 µM (≈ 69.6 µg/mL). In addition, the IC50 on Human Nav1.8 ion channel stood at 0.918 nM; at hNav1.8, 1 nM. In addition, the half-life at 1 µM in series [2] is 0.372 h. For the same molecule, the inhibition at 0.01 µM on hNav1.8 (10 nM, Method 1, CHO-hNav1.8) was 91.3%.
`Cc1ccc2cc(C(=O)Nc3ccnc(C(N)=O)c3)c(N3CCCC(F)(F)CC3)nc2c1` [Example 23, N-(2-carbamoylpyridin-4-yl)-2-(4,4-difluoroazepan-1-yl)-7-methylquinoline-3-carboxamide]: the IC50 on Human Nav1.8 ion channel was found to be 1.5 nM. Moreover, at hNav1.8 (Method 1, CHO-hNav1.8), the inhibition at 0.1 µM was 97.2%.
For the molecule `COc1cc2cc(C(=O)Nc3ccnc(C(N)=O)c3)c(N3CCCC(F)(F)CC3)nc2cc1OC` [Example 24, N-(2-carbamoylpyridin-4-yl)-2-(4,4-difluoroazepan-1-yl)-6,7-dimethoxyquinoline-3-carboxamide], the kinetic solubility at 2 h in series [1] was 9.88 µM (≈ 4.8 µg/mL). For the same molecule, the concentration for half-maximal inhibition (IC50) on Human Nav1.8 ion channel is 97.1 nM. Further, in series [2], the half-life at 1 µM was greater than 2.42 h. The inhibition at 0.1 µM on hNav1.8 (Method 1, CHO-hNav1.8) was found to be 51%.
Consider `CS(=N)(=O)c1cc(NC(=O)c2cc3cc(F)c(F)cc3nc2N2CCCC(F)(F)CC2)ccn1` (stereo not drawn) [Example 27, 2-(4,4-difluoroazepan-1-yl)-6,7-difluoro-N-(2-(S-methylsulfonimidoyl)pyridin-4-yl)quinoline-3-carboxamide], for which the solubility (kinetic) at 2 h in series [1] was 78.8 µM (≈ 39 µg/mL). Further, the half-life at 1 µM in series [2] was 2.26 h. On hNav1.8 (Method 1, CHO-hNav1.8), the inhibition at 0.1 µM was 97%.
In the case of `CNS(=O)(=O)c1cc(NC(=O)c2cc3ccccc3nc2N2CCCC(F)(F)CC2)ccn1` [Example 28, 2-(4,4-difluoroazepan-1-yl)-N-(2-(N-methylsulfamoyl)pyridin-4-yl)quinoline-3-carboxamide], in series [1], the kinetic solubility at 2 h stood at 131 µM (≈ 62.3 µg/mL). Also, the IC50 at Human Nav1.8 ion channel is 11.4 nM. Further, at hNav1.8 (Method 1, CHO-hNav1.8), the inhibition at 0.1 µM turned out to be 94.2%.
`CNS(=O)(=O)c1cc(NC(=O)c2cc3cc(F)c(F)cc3nc2N2CCCC(F)(F)CC2)ccn1` [Example 29, 2-(4,4-difluoroazepan-1-yl)-6,7-difluoro-N-(2-(N-methylsulfamoyl)pyridin-4-yl)quinoline-3-carboxamide] yielded a kinetic solubility at 2 h in series [1] of less than 1.56 µM. Besides, on hNav1.8 (Method 1, CHO-hNav1.8), the inhibition at 0.1 µM was 83.7%.
With `NS(=O)(=O)c1cccc(NC(=O)c2cc3ccccc3nc2Oc2ccc(F)cc2Cl)c1` [Example 30, 2-(2-chloro-4-fluorophenoxy)-N-(3-sulfamoylphenyl)quinoline-3-carboxamide, reference compound], in series [1], the kinetic solubility at 2 h is less than 0.18 µM. In addition, at Human Nav1.8 ion channel, the IC50 amounted to 9.5 nM. On hNav1.8 (Method 1, CHO-hNav1.8), the inhibition at 0.1 µM amounted to 94%.
For `Cc1cc(F)ccc1Oc1cc(C(F)(F)F)ccc1C(=O)Nc1cc[nH]c(=O)c1` [Example 32, 2-(4-fluoro-2-methylphenoxy)-N-(2-carbonyl-1,2-dihydropyridin-4-yl)-4-(trifluoromethyl)benzamide, reference compound], in series [1], the solubility (kinetic) at 2 h was less than 1.56 µM. The inhibition at 0.01 µM at hNav1.8 (10 nM, Method 1, CHO-hNav1.8) turned out to be 38.1%. Besides, the inhibition at 0.1 µM at hNav1.8 (Method 1, CHO-hNav1.8) came out at 84.7%.
